The source of these data is patent US12570643B2, “3-aryloxy-3-five-membered heteroaryl propylamine compound, and crystal form and use thereof” (Shanghai Leado Pharmatech Co. Ltd., priority 2019, dated 2026).

One series deals with HepG2 cells. The series can be described thus: Hepatocyte toxicity (CCK-8 cytotoxicity test). The class given is cell-based. Conditions: Homo sapiens, 72 hours, read-out: hepatotoxicity (IC50). As for the experimental part: (§1) HepG-2 and SH-SY5Y cells were prepared and placed in 10 cm dish and incubated at 37° C., 5% CO2 in a cell incubator; the cells were digested with trypsinize, resuspended and then counted. Based on a system of 100 μl/well, 8000 cells were transferred to a 96-well plate. The cells were incubated in a 37° C., 5% CO2 cell incubator for 24 hours; a gradient concentration system of compound I-1 (prepared in Example 2) was prepared, 2 times diluted, the system was 100 μl/well. The supernatant in the 96-well plate cell culture system on the first day was removed, and a fresh prepared drug concentration system was added to the corresponding culture plate wells culturing cells (set up duplicate wells). […] After completion of the culture, the supernatant was removed from the cell culture system of the 96-well plate, 100 μl of detection solution (medium containing 10% CCK-8) was add to each well, and incubated in a cell incubator at 37° C. and 5% CO2 for 1 hour, then taken it out and measured the absorbance at 450 nm with a microplate reader. Data were processed, cytotoxicity was calculated, and IC50 was calculated by GraphPad Prism. […]
(§2) A (dosing): absorbance of the well having cells, CCK-8 solution and drug solution
(§3) A (blank): absorbance of the well having medium and CCK-8 solution, without cells.
(§4) A (0 dosing): absorbance of the well having cells and CCK-8 solution, without drug solution […]
In general terms: Tetrazolium assays rely on reduction of a dye to a coloured formazan, in cell work by metabolically active cells.

A further series has as its target T1, TRPA1 (Mus musculus, UniProt Q8BLA8).
T1 construct: expressed in transfected cells; host or cells: HEK293 cells stably expressing TRPA1
The series is described as follows: TRPA1 inhibitory activity, IonWorks Barracuda (IWB) automatic patch clamp detection. The series is classed as cell-based. Conditions: automatic patch clamp. The protocol: In this example, the compounds prepared in some examples of the present invention (shown in Table 1) were tested for their inhibitory activity on the transient receptor potential channel protein TRPA1. Wherein, compound of formula A (WO2010075353) was used as positive control: […]
Test method by using IonWorks Barracuda (IWB) automatic patch clamp detection: HEK293 cells stably expressing TRPA1 were placed in a 37° C., 5% CO2 incubator and incubated with DMEM medium containing 15 μg/mL Blasticidin S HCl, 200 μg/mL Hygromycin B and 10% FBS serum in a T175 culture flask. When the cell density grew to […], the culture medium was removed, the cells were washed with calcium and magnesium free phosphate buffered saline (PBS), and 3 mL of Trypsin was added and digested for 2 minutes, and 7 mL of culture medium was added to terminate the digestion. […]
Data recording and current amplitude measurement and export were completed by IWB Software (version 2.5.3, Molecular Devices Corporation, Union City, CA). The statistics of the well with a sealing impedance lower than 20 M Ω were not recorded. The original current data was corrected by software, the TRPA1 current amplitude was measured in +100 mV. […] The dose-effect curve and IC50 of compounds were fitted and calculated by GraphPad Prism 5.02 (GraphPad Software, San Diego, CA).

Series [1] in a line: Neurocytotoxicity (CCK-8 cytotoxicity test). The series is classed as cell-based. Conditions: human, SH-SY5Y cells. As for the experimental part: as §1, §2, §3, §4
For a further series, the system named is SNL model in rat. The series can be described thus: SNL model in rat, mechanical hyperalgesia test. The class given is in vivo, SD rats. As to conditions: 10 mg/kg intragastric, 1 hour after administration, hydrochloride used; control group 3.967 ± 0.775.
Series [2] has as its system acetic acid writhing pain model in mice. The series is described as follows: Acetic acid writhing pain model in mice. The class given is in vivo, ICR mice. The protocol:
ICR mice, male, 22-25 g, were fasted for food 2 h before administration, but can have water. All ICR mice were weighed and randomly grouped with the number of animals>10 per group. […] The mice were administered via intragastric administration according to the weight of mice. 1.5% acetic acid solution (0.1 ml/10 g) was intraperitoneally injected at 1 hour after administration, and the number of times of visceral pain in each group within 30 minutes was observed, the mice were counted once when the abdomen was concave, the trunk and hind legs were extended and the hips were elevated, and the number of times of these phenomena occurred within 30 min was finally counted.
(In writhing tests, fewer writhes than in controls are read as antinociception.)

Molecules are shown by their SMILES.

T1 sequence (Q8BLA8 whole entry): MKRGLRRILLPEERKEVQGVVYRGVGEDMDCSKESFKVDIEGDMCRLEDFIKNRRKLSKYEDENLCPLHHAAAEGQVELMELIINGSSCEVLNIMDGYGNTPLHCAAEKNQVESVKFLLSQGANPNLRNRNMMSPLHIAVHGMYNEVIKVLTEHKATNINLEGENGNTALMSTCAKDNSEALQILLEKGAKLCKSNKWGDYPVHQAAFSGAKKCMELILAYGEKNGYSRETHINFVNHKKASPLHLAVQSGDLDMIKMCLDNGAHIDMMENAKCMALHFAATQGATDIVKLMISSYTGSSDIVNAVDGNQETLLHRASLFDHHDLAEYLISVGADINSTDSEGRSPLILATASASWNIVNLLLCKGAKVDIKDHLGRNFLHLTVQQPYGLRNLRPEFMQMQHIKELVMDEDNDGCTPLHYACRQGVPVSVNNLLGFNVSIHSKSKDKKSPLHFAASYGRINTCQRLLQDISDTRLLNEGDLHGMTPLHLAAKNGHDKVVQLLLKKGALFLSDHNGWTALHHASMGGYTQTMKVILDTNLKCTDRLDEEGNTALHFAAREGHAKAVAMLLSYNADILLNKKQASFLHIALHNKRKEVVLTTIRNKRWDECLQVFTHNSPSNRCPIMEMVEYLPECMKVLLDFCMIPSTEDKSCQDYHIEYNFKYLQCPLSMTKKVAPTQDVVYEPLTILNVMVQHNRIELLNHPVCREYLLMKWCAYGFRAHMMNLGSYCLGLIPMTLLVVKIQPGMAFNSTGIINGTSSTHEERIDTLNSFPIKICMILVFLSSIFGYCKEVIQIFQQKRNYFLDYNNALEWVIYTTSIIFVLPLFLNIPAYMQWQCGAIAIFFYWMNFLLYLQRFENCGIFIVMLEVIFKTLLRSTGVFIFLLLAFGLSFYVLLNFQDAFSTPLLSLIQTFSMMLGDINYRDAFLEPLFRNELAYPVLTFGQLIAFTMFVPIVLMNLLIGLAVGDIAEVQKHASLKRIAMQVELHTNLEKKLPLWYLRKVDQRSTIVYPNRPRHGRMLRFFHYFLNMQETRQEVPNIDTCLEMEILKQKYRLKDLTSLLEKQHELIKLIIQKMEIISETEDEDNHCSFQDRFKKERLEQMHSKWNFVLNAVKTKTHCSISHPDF
Procedure for SNL model in rat: SD rats were taken for surgery, male, SPF grade, mass 150 g-180 g. The surgical procedure was performed aseptically. The animals were anesthetized with sodium pentobarbital (50 mg/kg, intraperitoneal injection). The surgical area of the waist of animals was shaved, and the skin was disinfected three times with iodophor and 70% ethanol. Start the operation after the skin was dry. A longitudinal incision was made in the posterior part of the sacral bone of the animal's waist with a scalpel to expose the left paravertebral muscles, and the muscle tissue was separated with a distractor to expose the vertebra. The left spinal nerves L5 and L6 were separated, ligated with 6-0 silk thread, and the wounds were sutured. After the surgery, the animals were placed on an electric blanket and injected subcutaneously with 5 mL normal saline to prevent dehydration. When the animal was completely awake (free to move), put the animal back into the cage.
After the surgery, the animals were adapted in the experimental environment for 15 minutes/day for 3 days.
After administration, mechanical hyperalgesia test was performed. The rats were placed individually in a plexiglas box with a grid at the bottom of the box to ensure that the feet of the rats can be tested. Rats would adapt for 15 minutes before the test. […] The rapid paw withdrawal of the animal during the test was recorded as a pain response. The paw withdrawal of the animal when the test fiber left the animal's skin was also recorded as a pain response. If the animal moved or walked, it will not be recorded as a pain response, the test should be repeated. […]
Mechanical hyperalgesia was expressed as the paw withdrawal threshold (PWT) in the behavioral test of rats, which was calculated according to the following equation: 50% response threshold (g)=(10(^Xf+kδ))/10,000 • Xf=the final test fiber value used in the test • K=table value • δ=Average difference
Data were collected using Excel software and analyzed using Prism 6.01 (Graph pad software, Inc.) software.

In the case of `CNCC[C@@H](Oc1cccc2ccoc12)c1cccs1` [Compound I-1, (R)-3-(benzofuran-7-yloxy)-N-methyl-3-(thiophen-2-yl)propan-1-amine], in the series on HepG2 cells, the IC50 (commonly the concentration that gives 50% inhibition) was roughly 114 µM. Also, the “activity ratio (IC50 of compound C2/IC50 of compound I-1)” value on TRPA1 is “about 6.3”. For the same compound, the IC50 at 72 h in series [1] was roughly 101 µM. For the same compound, the “PWT” value with SNL model in rat amounted to 7.869 ± 2.846 g. The “number of visceral pains lower than normal saline control group” value in series [2] (5 mg/kg intragastric) was 50%. In addition, the ED50 (usually the dose that gives a 50% effect, or the effect in half of the subjects) in series [2] (Mus musculus, po, intragastric, mice, read-out: half effective dose (ED50) in acetic acid writhing model) was less than 5 mg/kg.
